According to patent US20030203819A1, “Synergistically acting herbicidal mixtures” (priority 1998, published 2003):

Columns and labels:
Type in all cases: in vivo
[1] = tested on: Alopecurus myosuroides; experiment: Herbicidal action in the greenhouse (post-emergence treatment)
Excerpt: (§1) The mixtures according to the invention were applied pre- or post-emergence (foliar treatment). The herbicidal compounds of component B were applied in the formulation in which they are present as commercially available product.
(§2) Some of the experiments were greenhouse experiments and some were field trials on mini plots (on a site with sandy loam (pH 6.2 to 7.0) or sandy clay (pH 5.0 to 6.7) as the soil).
(§3) The harmful plants differed with regard to size and developmental state; on average, they were 5 to 20 cm long, depending on the growth habit.
(§4) The herbicidally active compounds of components A) and B) were applied in succession or jointly, in the latter case in some cases as a tank mix and in some cases as a readymix, in the form of emulsions, aqueous solutions or suspensions, the vehicle being water ([…]). In the case of the field trials, application was effected with the aid of a mobile plot sprayer.
(§5) The test period extended over 3 to 8 weeks, and the stands were also observed at later points in time.
(§6) Damage by the herbicidal compositions was evaluated with reference to a scale of 0% to 100% in comparison with untreated control plots. 0 means no damage and 100 means complete destruction of the plants.
(§7) In these examples, the value E at which only an additive effect of the individual active ingredients is to be expected was calculated by the method of S. R. Colby (Calculating synergistic and antagonistic responses of herbicide combinations, Weeds 15, 20 pp (1967).

[2] = tested on: Stellaria media; experiment: Herbicidal action in the field (post-emergence treatment)
Excerpt: as §1, §2, §3, §4, §5, §6, §7

[3] = tested on: Bidens pilosa; experiment: as above
Excerpt: as §1, §2, §3, §4, §5, §6, §7

[4] = tested on: Cyperus species; experiment: as above
Excerpt: as §1, §2, §3, §4, §5, §6, §7

[5] = tested on: Ipomoea ssp.; experiment: Herbicidal action in the greenhouse (post-emergence treatment)
Excerpt: as §1, §2, §3, §4, §5, §6, §7

[6] = tested on: Amaranthus retroflexus; experiment: as above
Excerpt: as §1, §2, §3, §4, §5, §6, §7

[7] = tested on: Veronica ssp.; experiment: as above
Excerpt: as §1, §2, §3, §4, §5, §6, §7

[8] = tested on: Cyperus iria; experiment: Herbicidal action in the greenhouse (pre-emergence treatment); settings: Dimethenamid 62.5 g/ha a.s.
Excerpt: as §1, §2, §3, §4, §5, §6, §7

[9] = tested on: Digitaria sanguinalis; experiment: as above; settings: Dimethenamid 125 g/ha a.s.
Excerpt: as §1, §2, §3, §4, §5, §6, §7

[10] = tested on: Amaranthus retroflexus; experiment: as above; settings: Dimethenamid 125 g/ha a.s.
Excerpt: as §1, §2, §3, §4, §5, §6, §7

[11] = tested on: Sorghum halepense; experiment: Herbicidal action in the field (post-emergence treatment)
Excerpt: as §1, §2, §3, §4, §5, §6, §7

[12] = tested on: Panicum miliaceum; experiment: as above; settings: dimethenamid 841 g/ha a.s.
Excerpt: as §1, §2, §3, §4, §5, §6, §7

[13] = tested on: Ipomoea acuminata; experiment: as above
Excerpt: as §1, §2, §3, §4, §5, §6, §7

[14] = tested on: Setaria faberi; experiment: Herbicidal action in the greenhouse (post-emergence treatment); settings: glufosinate-ammonium 31.2 g/ha a.s.
Excerpt: as §1, §2, §3, §4, §5, §6, §7

[15] = tested on: Echinochloa crus-galli; experiment: as above
Excerpt: as §1, §2, §3, §4, §5, §6, §7

[16] = tested on: Digitaria adscendens; experiment: Herbicidal action in the field (post-emergence treatment)
Excerpt: as §1, §2, §3, §4, §5, §6, §7

[17] = tested on: Ipomoea lacunosa; experiment: as above; settings: nicosulfuron 35 g/ha a.s.
Excerpt: as §1, §2, §3, §4, §5, §6, §7

[18] = tested on: Setaria faberi; experiment: as above
Excerpt: as §1, §2, §3, §4, §5, §6, §7

[19] = tested on: Galium aparine; experiment: as above
Excerpt: as §1, §2, §3, §4, §5, §6, §7

[20] = tested on: Richardia brasiliensis; experiment: as above; settings: Bentazone 1440 g/ha a.s.
Excerpt: as §1, §2, §3, §4, §5, §6, §7

[21] = tested on: Abutilon theophrasti; experiment: Herbicidal action in the greenhouse (post-emergence treatment)
Excerpt: as §1, §2, §3, §4, §5, §6, §7

[22] = tested on: Abutilon theophrasti; experiment: Herbicidal action in the field (post-emergence treatment)
Excerpt: as §1, §2, §3, §4, §5, §6, §7

[23] = tested on: Sorghum bicolor; experiment: as above; settings: atrazine 840 g/ha a.s.
Excerpt: as §1, §2, §3, §4, §5, §6, §7

[24] = tested on: Ipomoea purpurea var. diversifolia; experiment: as above
Excerpt: as §1, §2, §3, §4, §5, §6, §7

[25] = tested on: Phalaris spec.; experiment: as above; settings: 2,4-D 500 g/ha a.s.
Excerpt: as §1, §2, §3, §4, §5, §6, §7

[26] = tested on: Geranium carolinianum; experiment: as above; settings: glyphosate 840 g/ha a.s.
Excerpt: as §1, §2, §3, §4, §5, §6, §7

[27] = tested on: Setaria viridis; experiment: Herbicidal action in the greenhouse (post-emergence treatment); settings: isoxaflutole 31.2 g/ha a.s.
Excerpt: as §1, §2, §3, §4, §5, §6, §7

[28] = tested on: Anthemis mixta; experiment: Herbicidal action in the field (post-emergence treatment); settings: carfentrazone-ethyl 30 g/ha a.s.
Excerpt: as §1, §2, §3, §4, §5, §6, §7

[29] = tested on: Brachiaria plantaginea; experiment: as above; settings: pendimethalin 990 g/ha a.s.
Excerpt: as §1, §2, §3, §4, §5, §6, §7

[30] = tested on: Digitaria sanguinalis; experiment: as above; settings: Cycloxydim 100 g/ha a.s.
Excerpt: as §1, §2, §3, §4, §5, §6, §7

[31] = tested on: Chenopodium album; experiment: as above; settings: Cycloxydim 100 g/ha a.s.
Excerpt: as §1, §2, §3, §4, §5, §6, §7

[32] = tested on: Alopecurus myosuroides; experiment: as above; settings: fenoxaprop-ethyl 83 g/ha a.s.
Excerpt: as §1, §2, §3, §4, §5, §6, §7

[33] = tested on: Setaria viridis; experiment: as above; settings: Sethoxydim 160 g/ha a.s.
Excerpt: as §1, §2, §3, §4, §5, §6, §7

[34] = glufosinate-ammonium 400 g/ha a.s.

Compound: CN(C)C(=O)Nc1ccc(Cl)c(Cl)c1 [diuron, reference compound]
- Damage ([1]; diuron 250 g/ha a.s.): 80%

Compound: CC(C)c1ccc(NC(=O)N(C)C)cc1 [isoproturon, reference compound]
- Damage ([2]; isoproturon 1000 g/ha a.s.): 94%

Compound: CC(C)C1(C)N=C(c2nc3ccccc3cc2C(=O)O)NC1=O (stereo not drawn) [imazaquin, reference compound]
- Damage ([3]; imazaquin 150 g/ha a.s.): 45%

Compound: CSc1nnc(C(C)(C)C)c(=O)n1N [metribuzin, reference compound]
- Damage ([4]; metribuzin 200 g/ha a.s.): 50%
- Damage ([3]; metribuzin 200 g/ha a.s.): 38%

Compound: CC(C)C1(C)N=C(c2ncccc2C(=O)O)NC1=O (stereo not drawn) [imazapyr, reference compound]
- Damage ([1]; imazapyr 250 g/ha a.s.): 90%
- Damage ([5]; imazapyr 62.5 g/ha a.s.): 85%

Compound: COCC(C)N(C(=O)CCl)c1c(C)csc1C (stereo not drawn) [Dimethenamid, dimethenamid, reference compound]
- pest or weed control at 500 g/ha ([6]; Amaranthus retroflexus, post-emergence, Dimethenamnid 500 g/ha a.s., read-out: Damage): 10%
- Damage ([7]; Dimethenamid 500 g/ha a.s. (Table 43)): 70%
- Damage ([7]; Dimethenamid 500 g/ha a.s. (Table 45)): 70%
- Damage [8]: 95%
- Damage [9]: 80%
- Damage [10]: 80%
- Damage ([11]; dimethenamid 1120 g/ha a.s.): 7%
- Damage [12]: 23%

Compound: CS(=O)(=O)c1ccc(C(=O)C2C(=O)CCCC2=O)c(Cl)c1 [sulcotrione, reference compound]
- pest or weed control at 250 g/ha ([6]; Amaranthus retroflexus, post-emergence, read-out: Damage, sulcotrione 250 g/ha a.s.): 45%
- Damage ([13]; sulcotrione 300 g/ha a.s.): 86%

Compound: CP(=O)(O)CCC(N)C(=O)O (stereo not drawn) [glufosinate-ammonium, reference compound]
- Damage [14]: 65%
- Damage ([15]; glufosinate-ammonium 15.6 g/ha a.s.): 0%
- Damage [13, 34]: 75%
- Damage [16, 34]: 75%

Compound: CC(C)N(C(=O)COc1nnc(C(F)(F)F)s1)c1ccc(F)cc1 [flufenacet, reference compound]
- Damage ([16]; flufenacet 600 g/ha a.s.): 58%

Compound: COc1cc(OC)nc(NC(=O)NS(=O)(=O)c2ncccc2C(=O)N(C)C)n1 [nicosulfuron, reference compound]
- pest or weed control at 1.9 g/ha ([6]; Amaranthus retroflexus, post-emergence, nicosulfuron 1.9 g/ha a.s., read-out: Damage): 65%
- Damage [17]: 39%

Compound: COc1nc(NC(=O)NS(=O)(=O)c2ccccc2C(F)(F)F)nc(C(F)(F)F)n1 [N-[[[4-methoxy-6-(trifluoromethyl)-1,3,5-triazin-2-yl]amino]carbonyl]-2-(trifluoromethyl)benzenesulfonamide, reference compound]
- Damage ([18]; the benzenesulfonamide (B2) 50 g/ha a.s.): 0%

Compound: N#Cc1cc(Br)c(O)c(Br)c1 [bromoxynil, reference compound]
- Damage ([19]; bromoxynil 470 g/ha a.s.): 84%

Compound: CCOC(=O)/C(Cl)=C/c1cc(N2C(=O)C3=C(CCCC3)C2=O)ccc1Cl [cinidon-ethyl, reference compound]
- Damage ([19]; cinidon-ethyl 7.8 g/ha a.s.): 90%

Compound: O=C(O)c1c(Cl)ccc2cc(Cl)cnc12 [Quinclorac, quinclorac, reference compound]
- Damage ([7]; Quinclorac 500 g/ha a.s.): 80%
- Damage ([5]; Quinclorac 250 g/ha a.s.): 70%

Compound: COc1cc(OC)nc(Sc2cccc(Cl)c2C(=O)O)n1 [pyrithiobac-sodium, reference compound]
- Damage ([15]; pyrithiobac-sodium 7.8 g/ha a.s.): 10%

Compound: CC(C)N1C(=O)c2ccccc2NS1(=O)=O [Bentazone, bentazone, reference compound]
- Damage [20]: 77%

Compound: CCOCN(C(=O)CCl)c1c(C)cccc1CC [acetochlor, reference compound]
- Damage ([21]; acetochlor 31.2 g/ha a.s.): 0%

Compound: CCNc1nc(Cl)nc(NC(C)C)n1 [atrazine, reference compound]
- Damage ([22]; atrazine 1120 g/ha a.s.): 32%
- Damage [23]: 27%
- Damage ([18]; atrazine 1120 g/ha a.s.): 20%

Compound: CCc1cnc(C2=NC(C)(C(C)C)C(=O)N2)c(C(=O)O)c1 (stereo not drawn) [imazethapyr, reference compound]
- Damage ([13]; imazethapyr 70 g/ha a.s.): 33%
- Damage ([24]; imazethapyr 70 g/ha a.s.): 58%

Compound: COC(=O)c1c(Cl)nn(C)c1S(=O)(=O)NC(=O)Nc1nc(OC)cc(OC)n1 [halosulfuron-methyl, reference compound]
- Damage ([1]; halosulfuron-methyl 31.2 g/ha a.s.): 45%
- pest or weed control at 7.8 g/ha ([6]; Amaranthus retroflexus, post-emergence, read-out: Damage, halosulfuron-methyl 7.8 g/ha a.s.): 80%

Compound: Cc1cc(Cl)ccc1OCC(=O)O [MCPA, reference compound]
- Damage ([4]; MCPA 600 g/ha a.s.): 5%

Compound: O=C(O)COc1ccc(Cl)cc1Cl [2,4-D, reference compound]
- Damage ([21]; 2,4-D 62.5 g/ha a.s.): 40%
- Damage ([6]; 2,4-D 62.5 g/ha a.s.): 20%
- Damage [25]: 20%

Compound: Nc1cnn(-c2ccccc2)c(=O)c1Cl [chloridazon, reference compound]
- Damage ([24]; chloridazon 1720 g/ha a.s.): 40%

Compound: O=C(O)CNCP(=O)(O)O [glyphosate, reference compound]
- Damage ([11]; glyphosate 840 g/ha a.s.): 74%
- Damage [26]: 97%

Compound: CS(=O)(=O)c1cc(C(F)(F)F)ccc1C(=O)c1cnoc1C1CC1 [isoxaflutole, reference compound]
- Damage [27]: 30%
- Damage ([5]; isoxaflutole 62.5 g/ha a.s.): 55%

Compound: CCOC(=O)C(Cl)Cc1cc(-n2nc(C)n(C(F)F)c2=O)c(F)cc1Cl (stereo not drawn) [carfentrazone-ethyl, reference compound]
- pest or weed control at 0.9 g/ha ([6]; Amaranthus retroflexus, post-emergence, read-out: Damage, carfentrazone-ethyl 0.9 g/ha a.s.): 60%
- Damage [28]: 0%

Compound: CCCCCCCCSC(=O)Oc1cc(Cl)nnc1-c1ccccc1 [pyridate, reference compound]
- Damage ([18]; pyridate 450 g/ha a.s.): 0%
- Damage ([3]; pyridate 450 g/ha a.s.): 25%

Compound: O=C(O)c1cc(Oc2ccc(C(F)(F)F)cc2Cl)ccc1[N+](=O)[O-] [acifluorfen, reference compound]
- Damage ([19]; acifluorfen 100 g/ha a.s.): 48%

Compound: CCC(CC)Nc1c([N+](=O)[O-])cc(C)c(C)c1[N+](=O)[O-] [pendimethalin, reference compound]
- Damage [29]: 0%

Compound: imazamethabenz [reference compound]
- Damage ([2]; imazamethabenz 525 g/ha a.s.): 0%

Compound: CCCC(=NOCC)C1=C(O)CC(C2CCCSC2)CC1=O (stereo not drawn) [Cycloxydim, cycloxydim, reference compound]
- Damage [30]: 81%
- Damage [31]: 0%

Compound: COc1cc(OC)n2nc(S(=O)(=O)Nc3c(Cl)ccc(C)c3Cl)nc2n1 [metosulam, reference compound]
- Damage ([7]; metosulam 1.9 g/ha a.s.): 40%

Compound: CCOC(=O)C(C)Oc1ccc(Oc2nc3ccc(Cl)cc3o2)cc1 (stereo not drawn) [fenoxaprop-ethyl, reference compound]
- pest or weed control at 31.2 g/ha ([6]; Amaranthus retroflexus, post-emergence, fenoxaprop-ethyl (title: fenoxaprop-P-ethyl) 31.2 g/ha a.s., read-out: Damage): 0%
- Damage [32]: 82%
- Damage ([19]; fenoxaprop-ethyl 83 g/ha a.s.): 0%

Compound: CCC/C(=N\OCC)C1=C(O)CC(CC(C)SCC)CC1=O (stereo not drawn) [Sethoxydim, sethoxydim, reference compound]
- Damage ([22]; Sethoxydim 160 g/ha a.s.): 0%
- Damage [33]: 93%
